Measured values reported in paper PMC4848734, “Purification and Characterization of a Novel Intracellular Sucrase Enzyme of Leishmania donovani Promastigotes” (Biochemistry Research International, 2016).

Key:
intracellular sucrase = test system: T1, intracellular sucrase; experiment: colorimetric glucose release ([…] nm), Lineweaver-Burk; type: biochemical, Leishmania donovani; conditions: 50 mM sodium acetate, pH 6.0, 30°C, 30 min; 0.4-5.0 mM sucrose; purified enzyme
T1 construct: native purification from promastigote cell-free extract; ~56 kDa subunit (SDS-PAGE), ~112 kDa native, proposed homodimer; gene not identified

[1] = molecular target: intracellular sucrase of Leishmania donovani promastigotes (Leishmania donovani (endogenous in promastigotes, strain MOHM/IN/1978/UR6)); experiment: SEC; Sephacryl S-200 column (120 x 1 cm), Buffer A (50 mM Tris-HCl, pH 7.4), 22 mL/hr; ammonium sulfate fraction of cell-free extract, sucrase followed by activity; native size from calibration graph compared with the subunit size in 10% SDS-PAGE

Molecule: OC[C@H]1O[C@@](CO)(O[C@H]2O[C@H](CO)[C@@H](O)[C@H](O)[C@H]2O)[C@@H](O)[C@@H]1O [sucrose]
- Km (intracellular sucrase): 1.61 mM

Molecule: intracellular sucrase of Leishmania donovani promastigotes (enzyme)
- stoichiometry N [1]: 2
